Measured values: patent US11464749B2, “Bismuth-thiol compositions and methods of use” (Microbion Corporation, priority 2018, dated 2022)
In brackets after ≈: the same amount, converted by molar mass. Several values for one entry are separate records, joined by “and”; a condition that tells them apart may be missing. Equal entries are not always repeated. Where two headings read alike, the source gives them in different places.

Tests used:
Pseudomonas aeruginosa = assay: Broth microdilution MIC (Example 11); details: Pseudomonas aeruginosa
Klebsiella pneumoniae = assay: Broth microdilution MIC (Example 11)
S. pyogenes = assay: Broth microdilution MIC (Example 11); details: Streptococcus pyogenes
B. cepacia = assay: FIC checkerboard assay; type: cell-based; details: Burkholderia cepacia, Meropenem alone (checkerboard with BisEDT), read-out: Drug B MIC
Enterobacter cloacae = assay: Broth microdilution MIC (Example 11); details: ATCCBAA2468
P. aeruginosa = assay: FIC checkerboard assay; type: cell-based; details: for MIC: Pseudomonas aeruginosa
Escherichia coli = assay: Broth microdilution MIC (Example 11)
E. faecalis = assay: Broth microdilution MIC (Example 11); details: Enterococcus faecalis, VRE, VRE Lev^R Cip^R Ery^R
B. cenocepacia = assay: FIC checkerboard assay; type: cell-based; details: for FICB: FIC of Meropenem in combination with BisEDT; for FICB / MICB: per checkerboard row; for MICB: MIC of Meropenem in combination with BisEDT; for MIC: Burkholderia cenocepacia, Meropenem alone (panel with BisEDT), read-out: Drug B MIC
Acinetobacter baumannii = assay: Broth microdilution MIC (Example 11); details: Acinetobacter baumannii
S. pneumoniae = assay: Broth microdilution MIC (Example 11); details: Streptococcus pneumoniae
[1] = test system: Staphylococcus aureus (MRSA); assay: Broth microdilution MIC (Example 11)
S. agalactiae = assay: Broth microdilution MIC (Example 11); details: Streptococcus agalactiae

Which MIC (Pseudomonas aeruginosa; ATCC27853, P. aeruginosa MMX 103 (ATCC 27853), QC) does the source give for `C[C@@H](O)[C@H]1C(=O)N2C(C(=O)O)=C(S[C@@H]3CN[C@H](C(=O)N(C)C)C3)[C@H](C)[C@H]12` [Meropenem, reference compound] here?
Its MIC is 0.5 µg/mL (≈ 1.3 µM).

And the MIC (Pseudomonas aeruginosa; P. aeruginosa MMX 1381, MDR, Lev^R, Cip^R, MEM^R, CAZ^R)?
The MIC was 16 µg/mL (≈ 41.7 µM).

What about the MIC (Pseudomonas aeruginosa; P. aeruginosa MMX 2562, MDR, Lev^R, Cip^R, MEM^R, CAZ^R) of the same compound?
Its MIC is 32 µg/mL (≈ 83.4 µM).

What about the MIC (Pseudomonas aeruginosa; P. aeruginosa MMX 3991, MDR, Lev^R, Cip^R, MEM^R, CAZ^R) of the same compound?
The MIC was 16 µg/mL (≈ 41.7 µM).

What about the MIC (Pseudomonas aeruginosa; P. aeruginosa MMX 4654, IMP-7, Lev^R, Cip^R, MEM^R, CAZ^R) of the same compound?
The MIC was over 64 µg/mL.

And the MIC (Pseudomonas aeruginosa; P. aeruginosa MMX 4697, VIM-2, Lev^R, Cip^R, MEM^R, CAZ^R)?
The MIC was 8 µg/mL (≈ 20.9 µM).

And the MIC (Klebsiella pneumoniae; K. pneumoniae MMX 4622, KPC-2, MEM^R, CAZ^R)?
The MIC was over 64 µg/mL.

What about the MIC (Klebsiella pneumoniae; K. pneumoniae MMX 4623, KPC-2, MEM^R, CAZ^R, GM^R) of the same compound?
Its MIC is over 64 µg/mL.

What about the MIC (Klebsiella pneumoniae; K. pneumoniae MMX 4653, KPC-3, Lev^R, MEM^R, CAZ^R) of the same compound?
The MIC was over 64 µg/mL.

What about the MIC (Klebsiella pneumoniae; K. pneumoniae MMX 4683, KPC-2, Lev^R, MEM^R, CAZ^R) of the same compound?
Its MIC is 32 µg/mL (≈ 83.4 µM).

What about the MIC (Klebsiella pneumoniae; K. pneumoniae MMX 4684, ESBL, MEM^R) of the same compound?
Its MIC is 8 µg/mL (≈ 20.9 µM).

And the MIC (Klebsiella pneumoniae; K. pneumoniae MMX 4685, ESBL, Lev^R, MEM^R, CAZ^R)?
The MIC was 4 µg/mL (≈ 10.4 µM).

What about the MIC (Klebsiella pneumoniae; K. pneumoniae MMX 4694, KPC-3, Lev^R, MEM^R, CAZ^R) of the same compound?
Its MIC is 32 µg/mL (≈ 83.4 µM).

What about the MIC (Klebsiella pneumoniae; K. pneumoniae MMX 5979, NDM-1, Lev^R, MEM^R, CAZ^R, Gm^R) of the same compound?
Its MIC is over 64 µg/mL.

What about the MIC (S. pyogenes; S. pyogenes MMX 3068, Ery^R) of the same compound?
Its MIC is at most 8 ng/mL.

And the MIC (S. pyogenes; S. pyogenes MMX 3820, ERY^R CLI^R)?
The MIC was at most 8 ng/mL.

And the MIC (S. pyogenes; S. pyogenes MMX 3919, ERY^R)?
The MIC was at most 8 ng/mL.

And the MIC (S. pyogenes; S. pyogenes MMX 3929, ERY^R CC^R)?
The MIC was at most 8 ng/mL.

And the MIC (S. pyogenes; S. pyogenes MMX 5091, ERY^R CC^R)?
Its MIC is at most 8 ng/mL.

And the MIC (B. cepacia; B. cepacia 546)?
Its MIC is 4 µg/mL.

And the MIC (B. cepacia; B. cepacia 1793)?
The MIC was 4 µg/mL.

And the MIC (Enterobacter cloacae)?
The MIC was over 64 µg/mL.

What about the “MICB (Drug B in combination)” value (P. aeruginosa; P. aeruginosa 6322, with BisEDT, checkerboard rows C-G) of the same compound?
Its value is 16 µg/mL.

What about the MIC (P. aeruginosa; P. aeruginosa 6322, checkerboard panel BisEDT/Meropenem, read-out: Drug B MIC (alone)) of the same compound?
Its MIC is 16 µg/mL.

And the MIC (P. aeruginosa; P. aeruginosa 6977, Meropenem alone (checkerboard with BisEDT), read-out: Drug B MIC)?
Its MIC is 8 µg/mL.

And the MIC (P. aeruginosa; P. aeruginosa 7745, Meropenem alone (checkerboard with BisEDT), read-out: Drug B MIC)?
The MIC was 16 µg/mL.

What about the MIC (P. aeruginosa; P. aeruginosa 8798, Meropenem alone (checkerboard with BisEDT), read-out: Drug B MIC) of the same compound?
Its MIC is 32 µg/mL.

What about the MIC (P. aeruginosa; P. aeruginosa 9108, Meropenem alone (checkerboard with BisEDT), read-out: Drug B MIC) of the same compound?
The MIC was 1 µg/mL.

What about the MIC (Escherichia coli; ATCC25922, E. coli MMX 102 (ATCC 25922), QC) of the same compound?
The MIC was 0.03 µg/mL (≈ 0.0782 µM).

What about the MIC (Escherichia coli; ATCCBAA2469, E. coli MMX 5980 (ATCC BAA-2469), NDM-1, Lev^R, MEM^R, CAZ^R, Gm^R) of the same compound?
The MIC was 32 µg/mL (≈ 83.4 µM).

What about the MIC (Escherichia coli; E. coli MMX 8423, ESBL, Lev^R, CAZ^R, Gm^R) of the same compound?
Its MIC is 0.03 µg/mL (≈ 0.0782 µM).

What about the MIC (Escherichia coli; E. coli MMX 8424, ESBL, CAZ^R) of the same compound?
Its MIC is 0.03 µg/mL (≈ 0.0782 µM).

What about the MIC (Escherichia coli; E. coli MMX 8425, ESBL, Lev^R, CAZ^R, Gm^R) of the same compound?
The MIC was 0.015 µg/mL (≈ 0.0391 µM).

And the MIC (E. faecalis; E. faecalis MMX 8960)?
The MIC was 8 µg/mL (≈ 20.9 µM).

And the MIC (E. faecalis; E. faecalis MMX 8961)?
Its MIC is 8 µg/mL (≈ 20.9 µM).

What about the MIC (E. faecalis; E. faecalis MMX 8962) of the same compound?
Its MIC is 2 µg/mL (≈ 5.22 µM).

What about the FICB (B. cenocepacia; B. cenocepacia 548) of the same compound?
The FICB was 0.5 and 1.

And the MICB (B. cenocepacia; B. cenocepacia 548)?
Its MICB is 2 µg/mL and 4 µg/mL.

What about the FICB (B. cenocepacia; B. cenocepacia 813) of the same compound?
The FICB was 0.5 and 1.

What about the MICB (B. cenocepacia; B. cenocepacia 813) of the same compound?
Its MICB is 1 µg/mL and 2 µg/mL.

And the MIC (B. cenocepacia; B. cenocepacia 548)?
Its MIC is 4 µg/mL.

And the MIC (B. cenocepacia; B. cenocepacia 813)?
The MIC was 2 µg/mL.

And the MIC (Acinetobacter baumannii; A. baumannii MMX 2592, MDR, Lev^R, Cip^R, MEM^R, CAZ^R, Gm^R)?
Its MIC is 64 µg/mL (≈ 167 µM).

What about the MIC (Acinetobacter baumannii; A. baumannii MMX 2593, MDR, Lev^R, Cip^R, MEM^R, CAZ^R, Gm^R) of the same compound?
The MIC was 64 µg/mL (≈ 167 µM).

What about the MIC (Acinetobacter baumannii; A. baumannii MMX 3372, MDR, Cip^R, MEM^I, CAZ^I) of the same compound?
Its MIC is 4 µg/mL (≈ 10.4 µM).

And the MIC (Acinetobacter baumannii; A. baumannii MMX 3373, Sensitive)?
The MIC was 0.5 µg/mL (≈ 1.3 µM).

And the MIC (Acinetobacter baumannii; NCTC13304, A. baumannii MMX 4651 (NCTC 13304), MDR, OXA-27, Lev^R, Cip^R, MEM^R, CAZ^R, Gm^I)?
The MIC was 64 µg/mL (≈ 167 µM).

And the MIC (S. pneumoniae; ATCC49619, S. pneumoniae MMX 6837 (ATCC 49619), QC)?
The MIC was 0.06 µg/mL (≈ 0.156 µM).

What about the MIC (S. pneumoniae; S. pneumoniae MMX 880, Lev^R SXT^R CC^R Ery^R Pen^R) of the same compound?
The MIC was 0.5 µg/mL (≈ 1.3 µM).

What about the MIC (S. pneumoniae; S. pneumoniae MMX 937, Mem^R SXT^R CC^R Ery^R Pen^R) of the same compound?
Its MIC is 1 µg/mL (≈ 2.61 µM).

And the MIC (S. pneumoniae; S. pneumoniae MMX 3959, CC^R Ery^R)?
The MIC was 0.03 µg/mL (≈ 0.0782 µM).

And the MIC (S. pneumoniae; S. pneumoniae MMX 5440, Mem^R SXT^R CC^R Ery^R Pen^R)?
Its MIC is 1 µg/mL (≈ 2.61 µM).

And the MIC (S. pneumoniae; S. pneumoniae MMX 5445, Mem^R SXT^R CC^R Ery^R Pen^R)?
Its MIC is 1 µg/mL (≈ 2.61 µM).

And the MIC (S. pneumoniae; S. pneumoniae MMX 8133, Mem^R SXT^R CC^R Ery^R Pen^R)?
The MIC was 1 µg/mL (≈ 2.61 µM).

What about the MIC ([1]; ATCC29213|MRSA|MSSA, S. aureus MMX 101 (ATCC 29213), QC, MSSA) of the same compound?
The MIC was 0.06 µg/mL (≈ 0.156 µM).

What about the MIC ([1]; MRSA, S. aureus MMX 5373, MRSA Lev^R Cip^R CC^R Ery^R Ox^R) of the same compound?
The MIC was 32 µg/mL (≈ 83.4 µM).

And the MIC ([1]; MRSA, S. aureus MMX 6311, MRSA Lev^R Cip^R CC^R Ery^R Ox^R)?
The MIC was 8 µg/mL (≈ 20.9 µM).

What about the MIC ([1]; MRSA, S. aureus MMX 9203, MRSA Lev^R Cip^R Ery^R Ox^R) of the same compound?
The MIC was 4 µg/mL (≈ 10.4 µM).

And the MIC ([1]; MRSA, S. aureus MMX 9204, MRSA Lev^R Cip^R Ery^R Ox^R)?
The MIC was 4 µg/mL (≈ 10.4 µM).

And the MIC ([1]; MRSA, S. aureus MMX 9205, MRSA Lev^R Cip^R CC^R Ery^R Ox^R)?
Its MIC is 64 µg/mL (≈ 167 µM).

What about the MIC (S. agalactiae; S. agalactiae MMX 3741, ERY^R CC^R) of the same compound?
Its MIC is 0.03 µg/mL (≈ 0.0782 µM).

And the MIC (S. agalactiae; S. agalactiae MMX 3743, ERY^R CC^R)?
The MIC was 0.06 µg/mL (≈ 0.156 µM).

What about the MIC (S. agalactiae; S. agalactiae MMX 4077, ERY^R CC^R) of the same compound?
Its MIC is 0.06 µg/mL (≈ 0.156 µM).

And the MIC (S. agalactiae; S. agalactiae MMX 4079, ERY^R CC^R Pen^R MEM^R)?
Its MIC is 8 µg/mL (≈ 20.9 µM).

And the MIC (S. agalactiae; S. agalactiae MMX 4086, ERY^R CC^R)?
Its MIC is 0.06 µg/mL (≈ 0.156 µM).
